Experimental data published in paper PMC12595476, “FibrilPaint to determine the length of Tau amyloids in fluids” (Proceedings of the National Academy of Sciences of the …, 2025).
Peptide text beside a SMILES is read from it. * marks the point of attachment. 5FAM = O=C1OC2(c3ccc(O)cc3Oc3cc(O)ccc32)c2ccc(C(=O)*)cc21

B1: Lecanemab: antibody approved to target Amyloid-β (Aβ) plaques (antibody, chains of the INN, looked up, V domains shown)
VH: EVQLVESGGGLVQPGGSLRLSCSASGFTFSSFGMHWVRQAPGKGLEWVAYISSGSSTIYYGDTVKGRFTISRDNAKNSLFLQMSSLRAEDTAVYYCAREGGYYYGRSYYTMDYWGQGTTVTVSS
VL: DVVMTQSPLSLPVTPGAPASISCRSSQSIVHSNGNTYLEWYLQKPGQSPKLLIYKVSNRFSGVPDRFSGSGSGTDFTLRISRVEAEDVGIYYCFQGSHVPPTFGPGTKLEIK

Legend:
TauRD monomers = target: T1, TauRD monomers (Homo sapiens, UniProt P10636, DEL597-597); assay: Monolith (MST / spectral shift) binding to TauRD monomers; conditions: 50 nM FibrilPaint1, 37 °C, N = 3, unit inferred
T1 construct: We used Tau Repeat Domain (Q244-E372, TauRD) with the proaggregation mutation ΔK280; made in house; host or cells: E. coli BL21 Rosetta 2
T1 sequence (P10636 with tags, fused parts or gaps isoform P10636-8 DEL280-280): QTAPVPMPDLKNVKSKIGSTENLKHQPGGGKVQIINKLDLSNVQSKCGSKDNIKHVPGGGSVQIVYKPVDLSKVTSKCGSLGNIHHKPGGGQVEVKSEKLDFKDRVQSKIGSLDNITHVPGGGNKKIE
Experimental: (§1) We confirmed that FibrilPaint1 binds specifically TauRD fibrils and not monomers by assessing binding affinity with monolith spectral shift analysis (Fig. 1 D and E). […] Since many monomers are needed to form one fibril, true affinity lies higher.
(§2) FibrilPaint1 (50 nM) was titrated with TauRD monomer or fibrils (0.5 nM to 10 µM) at 37 °C (Monolith NT.115); binding was extracted from the 5 s MST response.
(§3) Aragonès Pedrola, Dekker, et al. August 2025 FibrilPaint
(§4) FibrilRuler Test: Size measurement with Flow Induced Dispersion […]
(§5) Flow Induced Dispersion Analysis (FIDA) was used to determine fibril size. The FIDA experiments were performed using a FIDA1 with a 480 nm excitation source. […]
(§6) Data points were analysed using FIDAbio software, version 2.7. […]
(§7) Binding between FibrilPaint1 and TauRD monomers and fibrils was analyzed using Monolith (NanoTemper Technologies) Microscale thermophoresis system (MST). Thermophoresis was monitored at a concentration of 50 nM of FibrilPaint1 and a dilution series of the sample of interest, in 25 mM HEPES-KOH pH 7.5, 75 mM KCl, 75 mM NaCl. […]
(§8) Using equation 1, where L is the length and R the radius of the analysed particle, the mean length of the fibrils as function of Rh can be calculated.
(§9) As a model, PHF Fibril layers were stacked on top of each other using PyMOL software. […] Resulting structures were analysed for their Rh using FIDAbio hydrodynamic radii predictor.

TauRD fibrils [1] = target: T2, TauRD fibrils (Homo sapiens, UniProt P10636, DEL597-597); assay: Monolith (MST / spectral shift) binding to TauRD fibrils; conditions: based on monomer concentration; 50 nM FibrilPaint1, TauRD fibrils 0.5 nM to 10 µM, pH 7.5, 37 °C; N = 3
T2 construct: We used Tau Repeat Domain (Q244-E372, TauRD) with the proaggregation mutation ΔK280; made in house; host or cells: E. coli BL21 Rosetta 2
Experimental: as §1, §2, §3, §4, §5, §6, §7, §8, §9

TauRD fibrils [2] = target: T2, TauRD fibrils; assay: FIDA (FibrilRuler Test): binding to TauRD fibrils; conditions: detection of Tau amyloid fibrils with FIDA; Yes/No; Suppl. Table S1
Text: (§10) Next, we screened the four FibrilPaint peptides for direct binding to TauRD fibrils. We developed an application of FIDA to determine the size of amyloid aggregates, called the FibrilRuler Test (Fig. 1B). FIDA is a recently established technique to measure size of protein complexes ([40], [41]). In FIDA, the detector records the fluorescence signal after passage of the sample through a long capillary. The sample passes a detector window, resulting in a size-dependent diffusion profile of the fluorescent compound. Smaller species diffuse faster and bigger ones slower, resulting in a narrow or broad dispersion of the fluorescent signal (Fig. 1B). Since FIDA readout relies on the physical diffusion properties of the sample, we can measure the hydrodynamic radius (Rh) of labeled species from the fluorescent signal ([42]–[44]). The Rh is a parameter corresponding to the size and shape of a molecule or a complex in solution. It is the radius of the sphere created by the tumbling particle. Rh values can be estimated from the structural coordinates, either by experimental methods or by predictions such as AlphaFold (SI Appendix, Table S2). For known structures, e.g., for many protein fibrils, an experimentally determined Rh value allows us to estimate the dimensions of the particle.
(§11) With this setup, we determined the Rh of FibrilPaint1 to 4 to be 1.7 nm each (SI Appendix, Table S1). The binding of the fluorescently labeled FibrilPaint peptide to protein fibrils increases the Rh value, as the peptide now tumbles together with the larger fibril (Fig. 1B). To measure the Rh of fibril complexes, we incubated preformed fibrils together with each of the four peptides in a 1:100 peptide:monomer ratio, using 200 nM peptide with fibrils made of 20 μM TauRD monomers.
(§12) Preformed or patient-derived fibrils (2 µM monomer) were mixed with 50 nM Fl-FibrilPaint1 and analyzed in capillary dissociation mode (25 °C, FIDA 1). […]
as §6
Target sequence in this assay (P10636 with tags, fused parts or gaps isoform P10636-8 DEL280-280): as above

[3] = system: TauRD (Tau Repeat Domain Q244-E372, ΔK280); assay: ThT assay of TauRD aggregation with titrated FibrilPaint peptides (ThT inhibition); type: biochemical, human; conditions: for ThT end-plateau / emitted ThT signal: 20 μM TauRD, 5 µM heparin, 45 µM ThT, peptide 2, 0.2, 0.02 µM, pH 7.4, 37 °C, triplicates, N = 3; for Tht inhibition: Yes/No, Suppl. Table S1
Text: We used Tau Repeat Domain (Q244-E372, TauRD) with the proaggregation mutation ΔK280 as a model for screening our FibrilPaint compounds. We performed a Thioflavin T (ThT) assay. ThT is an amyloid dye and provides a semiqualitative method used for the identification of amyloid structures in vitro and histology staining ([32], [33], [38]). A ThT assay is an established method to monitor protein fibrils formation, in which the fluorescent dye ThT emits fluorescence upon binding to fibrils ([38]). We identified 45 µM ThT as optimal concentration to study the kinetics of TauRD aggregation (SI Appendix, Fig. S1), in line with the literature ([39]).
Twenty µM TauRD + 5 µM heparin were incubated ± 45 µM ThT in 25 mM HEPES-KOH pH 7.4, 75 mM KCl/NaCl (37 °C). ThT fluorescence (440/485 nm) was recorded every 5 min for 24 h on a CLARIOstar® Plus; peptides were added as indicated. […]
Peptide synthesis and purification
The peptides were synthesized using a Liberty Blue Microwave-Assisted Peptide Synthesizer (CEM) with standard Fmoc chemistry and Oxyma/DIC as coupling reagents. The peptide concentrations were measured by UV spectroscopy. The peptides were labeled with 5(6)-carboxyfluorescein at their N’ termini. The peptides were cleaved from the resin with a mixture of 95% (v/v) trifluoroacetic acid (TFA), 2.5% (v/v) triisopropylsilane (TIS), 2.5% (v/v) triple distilled water (TDW) agitating vigorously for 3 hours at room temperature. The volume was decreased by N2 flux and the peptides precipitated by addition of 4 volumes of diethylether at -20 °C. The peptides were sedimented at -20 °C for 30 minutes, then centrifuged and the diethylether discarded. The peptides were washed three times with diethylether and dried by gentle N2 flux. The solid was dissolved in 1:2 volume ratio of acetonitrile (ACN):TDW, frozen in liquid Nitrogen and lyophilized.
The peptides were purified on a WATERS HPLC using a reverse-phase C18 preparative column with a gradient of ACN/TDW. The identity and purity of the peptides was verified by ESI mass spectrometry and Merck Hitachi analytical HPLC using a reverse-phase C8 analytical column.
Aggregation of 20 µM TauRD in 25 mM HEPES-KOH pH 7.4, 75 mM KCl, 75 mM
NaCl, ½ tablet/50 ml Protease Inhibitor, was induced by the addition 5 µM of heparin low molecular weight Impact of FibrilPaint peptides was assessed by adding 0.02, 0.2 or 2 µM of peptide.
Monitoring TauRD aggregation by thioflavin T (ThT) fluorescence
For monitoring the aggregation of TauRD by fluorescence, ThT was added to the aggregation mixture before addition of heparin. We used 45 µM ThT as standard condition, unless stated otherwise. […]. […]

[4] = FIDA: Rh of peptide alone (unbound); type: physicochemical; conditions: peptide not bound to anything
Text: as §10, §11, §12, §6

Amyloid-β (Aβ) plaques = conditions: in words; cited from earlier work
Text: The formation of amyloid fibrils is one of the earliest pathological hallmarks of neurodegenerative diseases ([3], [6], [12]–[15]). […] In AD, Aβ aggregation outside the cell precedes Tau aggregation inside the cell ([4], [13], [18]).

Molecule	Kd (TauRD monomers)	Kd (TauRD fibrils [1])	Fibril binding (TauRD fibrils [2])	ThT end-plateau / emitted ThT signal [3]	Tht inhibition [3]	Hydrodynamic radius (Rh) [4]	clinical effect (Amyloid-β (Aβ) plaques)	risks (Amyloid-β (Aβ) plaques)
CC(C)[C@H](NC(=O)[C@H](CCC(=O)O)NC(=O)[C@H](CCC(=O)O)NC(=O)[C@H](CO)NC(=O)CNC(=O)[C@H](CO)NC(=O)CNC(=O)[C@H](Cc1c[nH]cn1)NC(=O)[C@@H]1CCCN1C(=O)[C@H](Cc1c[nH]cn1)NC(=O)[C@H](Cc1c[nH]cn1)NC(=O)[C@H](Cc1c[nH]c2ccccc12)NC(=O)[C@@H]1CCCN1C(=O)[C@H](Cc1c[nH]c2ccccc12)NC(=O)[C@H](Cc1c[nH]c2ccccc12)NC(=O)[C@@H]1CCCN1C(=O)[C@H](CCCNC(=N)N)NC(=O)[C@H](CCCNC(=N)N)NC(=O)[C@H](Cc1c[nH]c2ccccc12)NC(=O)[C@H](Cc1c[nH]c2ccccc12)NC(=O)[C@@H]1CCCN1C(=O)c1ccc2c(c1)C(=O)OC21c2ccc(O)cc2Oc2cc(O)ccc21)C(=O)N[C@@H](CC(=O)O)C(=O)O [FibrilPaint1] (5FAM-PWWRRPWWPWHHPHGSGSEEVD-OH)	> 10 µM	1.6 µM	–	–	–	–	–	–
(Fl)-PWIRRPWWPWTTPTGSGSEEVD [FibrilPaint2, 22-residue fluorescein-labeled peptide]	–	–	No	lower the end-plateau in a dose-dependent manner	Yes	1.7 nm	–	–
(Fl)-PWWDDPWWPWHHPHGSGSEEVD [FibrilPaint4, 22-residue fluorescein-labeled peptide]	–	–	No	lower the end-plateau in a dose-dependent manner	Yes	1.7 nm	–	–
(Fl)-PWWDDPWWPWTTPTGSGSEEVD [FibrilPaint3, 22-residue fluorescein-labeled peptide]	–	–	No	lower the end-plateau in a dose-dependent manner	Yes	1.7 nm	–	–
B1	–	–	–	–	–	–	modest	significant risks involved
